Test results published in ChEMBL document CHEMBL3045401, “(Naphthalen-1-yloxy)-acetic acid benzylidene/(1-phenyl-ethylidene)-hydrazide derivatives: synthesis, antimicrobial evaluation, and QSAR studies” (Med Chem Res, 2012).
Values after ≈ are worked out from the molar mass of the structure shown.

Legend:
[1] = Cytotoxicity against HEL; assay type: cell-based; details: human, HEL cells
Human betaherpesvirus 5 [2] = assay: Antiviral activity against Human herpesvirus 5 strain AD169 infected human HEL cells assessed as reduction in the virus plaque formation; assay type: functional, organism-based; details: Human betaherpesvirus 5, AD169, HEL
[3] = Octanol-water partition coefficient, log P of the compound; assay type: physicochemical
Aspergillus niger = assay: Antimicrobial activity against Aspergillus niger after 7 days by serial dilution method; assay type: functional
Human alphaherpesvirus 3 [4] = assay: Antiviral activity against thymidine kinase-deficient Human herpesvirus 3 infected in HEL cells assessed as inhibition of viral plaque formation; assay type: functional, organism-based; details: Human alphaherpesvirus 3, HEL
[5] = test system: Human immunodeficiency virus 2; assay: Antiviral activity against Human immunodeficiency virus type 2 (ISOLATE ROD) infected human MT4 cells assessed as inhibition of virus-induced cytopathic effect after 4 days by MTT assay; assay type: functional, organism-based; details: Human immunodeficiency virus 2, ISOLATE ROD, MT4, 96 h
[6] = Cytotoxicity against Homo sapiens (human) MT4 cells after 4 days by MTT assay; assay type: cell-based
[7] = test system: Human immunodeficiency virus 1; assay: Antiviral activity against Human immunodeficiency virus 1 IIIB infected human MT4 cells assessed as inhibition of virus-induced cytopathic effect after 4 days by MTT assay; assay type: functional, organism-based; details: MT4, 96 h
Bacillus subtilis = assay: Antimicrobial activity against Bacillus subtilis after 24 hr by serial dilution method; assay type: functional
[8] = Cytotoxicity against HEL assessed as minimum concentration required to cause morphological changes; assay type: cell-based; details: human, HEL cells
Candida albicans = assay: Antimicrobial activity against Candida albicans after 2 days by serial dilution method; assay type: functional
Escherichia coli = assay: Antimicrobial activity against Escherichia coli after 24 hr by serial dilution method; assay type: functional
Staphylococcus aureus = assay: Antimicrobial activity against Staphylococcus aureus after 24 hr by serial dilution method; assay type: functional
Human alphaherpesvirus 3 [9] = assay: Antiviral activity against thymidine kinase-positive Human herpesvirus 3 infected in HEL cells assessed as inhibition of viral plaque formation; assay type: functional, organism-based; details: Human alphaherpesvirus 3, HEL
Human betaherpesvirus 5 [10] = assay: Antiviral activity against Human herpesvirus 5 Davis infected human HEL cells assessed as reduction in the virus plaque formation; assay type: functional, organism-based; details: Human betaherpesvirus 5, Davis

Structure (SMILES) | CC50 [1] [µg/mL] | EC50 (Human betaherpesvirus 5 [2]) [µg/mL] | logP [3] | -logMIC (Aspergillus niger) | EC50 (Human alphaherpesvirus 3 [4]) [µg/mL] | EC50 [5] [µg/mL] | CC50 at 96 h [6] [µg/mL] | EC50 [7] [µg/mL] | -logMIC (Bacillus subtilis) | MCC [8] [µg/mL] | -logMIC (Candida albicans) | -logMIC (Escherichia coli) | -logMIC (Staphylococcus aureus) | EC50 (Human alphaherpesvirus 3 [9]) [µg/mL] | EC50 (Human betaherpesvirus 5 [10]) [µg/mL]
O=C(COc1cccc2ccccc12)N/N=C/c1ccccc1 | 64.5 (≈ 212 µM) | > 20 | 4.02 | 0.78 | > 20 | > 96.6 | ≥ 96.6 | > 96.6 | 0.78 | 100 | 0.78 | 0.78 | 0.78 | > 20 | > 20
O=C(COc1cccc2ccccc12)N/N=C/c1ccccc1Cl | 62.7 (≈ 185 µM) | > 20 | 4.54 | 0.83 | > 20 | > 56.2 | 56.2 (≈ 166 µM) | > 56.2 | 0.83 | 100 | 0.83 | 0.83 | 1.13 | > 20 | > 20
O=C(COc1cccc2ccccc12)N/N=C/c1cccc(Cl)c1 | 58.6 (≈ 173 µM) | > 20 | 4.54 | 0.53 | > 100 | > 89.9 | 89.9 (≈ 265 µM) | > 89.9 | 0.53 | 100 | 0.53 | 0.53 | 0.83 | > 100 | > 20
O=C(COc1cccc2ccccc12)N/N=C/c1ccc(Cl)cc1 | 100 (≈ 295 µM) | > 20 | 4.54 | 0.53 | > 100 | > 87.6 | 87.6 (≈ 259 µM) | > 87.6 | 0.53 | 100 | 0.53 | 0.53 | 1.43 | > 100 | > 20
